pEC50: −log10 of the molar value.

Holding throughout (format): cell-based
Test [1] relates to Wnt activity (Sp5-Luc reporter, SW480 colon carcinoma cells). Description: Wnt activity screening assay, Sp5-Luc reporter gene in SW480 cells. To be noted: Homo sapiens; for pEC50: Sp5-Luc reporter, SW480 cells, overnight incubation; for inhibition at 10 µM: SW480, read-out: percent inhibition at 10 μM. In a few lines:
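SW480 cells stably carrying a luciferase reporter driven by an Sp5 promoter with eight TCF/LEF sites, plated overnight in 1% FBS medium at 37 °C. Luminescence read with BrightGlo. Signals normalized to DMSO-treated cells; EC50 from four-parameter variable-slope fit.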
(In general: Reporter assays use an easily measured gene product as a stand-in for the process of interest.)

In the next test the test system is SW480 colon cancer cells. The test is described as follows: Cell viability assay (CellTiter-Blue). To be noted: Homo sapiens; for pEC50: 96 h, SW480 cell viability, four days; for inhibition at 10 µM: SW480, 96 h, read-out: percent inhibition at 10 μM. In a few lines:
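Fluorescence from resazurin reduced to resorufin by metabolically active cells was the read-out, taken after ~3 h with CellTiter-Blue.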

The subject of test [2] is primary human fibroblasts derived from IPF patients (LL29 cells). The test is described as follows: Inhibition of fibrotic process, αSMA staining in TGF-β1 treated fibroblasts. Particulars: Fibroblast; for pEC50: 96 h, LL29 cells, TGF-β1 20 ng/mL, 4 days, % αSMA positive cells; for inhibition at 10 µM: read-out: percent inhibition at 10 μM. Summed up:
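LL29 fibroblasts plated in F12 with 1% FBS were stimulated with TGF-β1 alongside compound, with TGF-β1 plus DMSO wells as controls. After 4 days of incubation, SYTOX green was added at 1 μM final for 30 min at room temperature.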

Test [3] deals with primary human mesenchymal stem cells (hMSCs). Description: Induction of chondrogenesis in hMSCs (nodule count). Particulars: 6 days; for EC50: concentration required to induce 50% levels of chondrogenesis vs TGF-β3, read-out: Conc (nM) of 50% TGF-β3 activity; for Emax: relative to TGF-β3 (10 ng/mL) positive control, read-out: Max. Activity as % TGF-β3 activity. An excerpt:
Representative compounds were screened using primary human mesenchymal stem cells (hMSCs) to determine their ability to induce chondrogenesis (process by which cartilage is developed).
Primary human mesenchymal stem cells (hMSCs) were purchased from Lonza (Walkersville, Md.) and expanded in Mesenchymal Stem Cell Growth Media (Lonza). Cells between passage 3 and 6 were used for the experiments.
To image chondrogenic nodules, the cells were fixed using 4% formaldehyde (Electron Microscopy Sciences), and stained with 2 μg/mL Rhodamine B (Sigma-Aldrich) and 20 μM Nile Red (Sigma-Aldrich) [Johnson K., et. al, A Stem Cell-Based Approach to Cartilage Repair, Science, (2012). […] Number of nodules in each well was normalized to the average of 3 DMSO treated wells on the same plate using Excel (Microsoft Inc.). The normalized averages (fold change over DMSO) of 3 replicate wells for each compound concentration were calculated. Due to solubility limitations of some of the compounds, curve fitting was incomplete leading to inaccurate EC50 determinations.
Using TGF-β3 as a positive control, the concentration of representative compounds required to induce 50% levels of chondrogenesis is reported. In addition, the maximum activity of each compound and the respective dose that each compound reached maximum chondrogenesis activity is reported.

Another test deals with IL-6. The test is described as follows: IL-6 inhibition in LPS-stimulated THP-1 cells (HTRF). Particulars: Homo sapiens; for pEC50: THP-1 cells, LPS 500 ng/mL, 22 hours, IL6 HTRF; for inhibition at 10 µM: THP-1, read-out: percent inhibition at 10 μM. Summed up: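 Serum-reduced (1% FBS, 24 h) THP-1 cells, 5000/well, exposed to compound 2 h at 37 °C, then stimulated with 500 ng/mL LPS for 22 h. Secreted IL-6 measured by HTRF (665/620 ratio), normalised to DMSO; EC50 by four-parameter fit, duplicates.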

What is called pEC50 is −log10 of the EC50, conventionally taken in molar units. A low value points to a large EC50. With `O=C(Nc1cncc(-c2cnc3[nH]nc(-c4cc5ccncc5[nH]4)c3c2)c1)C1CCCCC1` [Compound 275, N-(5-(3-(1H-Pyrrolo[2,3-c]pyridin-2-yl)-1H-pyrazolo[3,4-b]pyridin-5-yl)pyridin-3-yl)cyclohexanecarboxamide], the pEC50 is 5.45 in test [1], 5.46 with SW480 colon cancer cells, 5.77 in test [2] and 6.40 in the test on IL-6. Besides, the EC50 in test [3] was found to be 2700 nM. For the same compound, in test [3], the Emax was found to be 291%.
For orientation: inhibition means the relative decrease from the control value, in per cent. As for `CC(C)CC(=O)Nc1cncc(-c2cnc3[nH]nc(-c4cc5c(-c6cc(F)cc(CNS(C)(=O)=O)c6)cncc5[nH]4)c3c2)c1` [Compound 478, N-(5-(3-(4-(3-Fluoro-5-(methylsulfonamidomethyl)phenyl)-1H-pyrrolo[2,3-c]pyridin-2-yl)-1H-pyrazolo[3,4-b]pyridin-5-yl)pyridin-3-yl)-3-methylbutanamide], the pEC50 in test [1] was 5.59; in the test with SW480 colon cancer cells, 5.14; in test [2], less than 5.00; in the test on IL-6 it was 5.93. Also, the inhibition at 10 µM in test [2] stood at 21.2%. Moreover, in test [3], the Emax was found to be 46%.
Turning to `CS(=O)(=O)NCc1cc(F)cc(-c2cncc3[nH]c(-c4n[nH]c5ncc(-c6cccnc6)cc45)cc23)c1` [Compound 480, N-(3-Fluoro-5-(2-(5-(pyridin-3-yl)-1H-pyrazolo[3,4-b]pyridin-3-yl)-1H-pyrrolo [2,3-c]pyridin-4-yl)benzyl)methane sulfonamide], the pEC50 is 5.84 in test [1], 5.44 with SW480 colon cancer cells, 5.65 in test [2] and 6.63 in the test on IL-6. The EC50 in test [3] was 2700 nM. Besides, in test [3], the Emax turned out to be 66%.
Regarding `CCNCc1cncc(-c2cnc3[nH]nc(-c4cc5c(-c6cc(F)cc(CNS(C)(=O)=O)c6)cncc5[nH]4)c3c2)c1` [Compound 482, N-(3-(2-(5-(5-((Ethylamino)methyl)pyridin-3-yl)-1H-pyrazolo[3,4-b]pyridin-3-yl)-1H-pyrrolo[2,3-c]pyridin-4-yl)-5-fluorobenzyl)methanesulfonamide], the inhibition at 10 µM in test [1] is 12.8%; in the test on SW480 colon cancer cells, 7%; in the test with IL-6 it was 47.9%. For the same compound, the pEC50 was less than 5.00 in test [1], less than 5.00 in the test on SW480 colon cancer cells, 5.30 in test [2] and less than 5.00 in the test on IL-6. Also, in test [3], the Emax was determined as 43%.
With `CC(C)C(=O)Nc1cncc(-c2cnc3[nH]nc(-c4cc5c(-c6cc(F)cc(CNS(C)(=O)=O)c6)cncc5[nH]4)c3c2)c1` [Compound 485, N-(5-(3-(4-(3-Fluoro-5-(methylsulfonamidomethyl)phenyl)-1H-pyrrolo[2,3-c]pyridin-2-yl)-1H-pyrazolo[3,4-b]pyridin-5-yl)pyridin-3-yl)isobutyramide], the inhibition at 10 µM in test [1] amounted to 49.8%; in the test on SW480 colon cancer cells, 14%; in test [2] it was 0%. Further, the pEC50 in test [1] is less than 5.00; in the test with SW480 colon cancer cells, less than 5.00; in test [2], less than 5.00; in the test on IL-6, 7.57. Further, the EC50 in test [3] is 30 nM. Further, the Emax in test [3] amounted to 60%.
For `CCCC(=O)Nc1cncc(-c2cnc3[nH]nc(-c4cc5c(-c6cc(F)cc(CNS(C)(=O)=O)c6)cncc5[nH]4)c3c2)c1` [Compound 493, N-(5-(3-(4-(3-Fluoro-5-(methylsulfonamidomethyl)phenyl)-1H-pyrrolo[2,3-c]pyridin-2-yl)-1H-pyrazolo[3,4-b]pyridin-5-yl)pyridin-3-yl)butyramide], the negative logarithm of the EC50 (pEC50) was 5.77 in test [1], less than 5.00 in the test on SW480 colon cancer cells, 5.05 in test [2] and 7.03 in the test with IL-6. Further, the inhibition at 10 µM in the test on SW480 colon cancer cells came to 46.1%. In test [3], the Emax is 37%.
Regarding `CS(=O)(=O)NCc1cc(F)cc(-c2cncc3[nH]c(-c4n[nH]c5ncc(-c6cncc(NC(=O)C7CC7)c6)cc45)cc23)c1` [Compound 496, N-(5-(3-(4-(3-Fluoro-5-(methylsulfonamidomethyl)phenyl)-1H-pyrrolo[2,3-c]pyridin-2-yl)-1H-pyrazolo[3,4-b]pyridin-5-yl)pyridin-3-yl)cyclopropanecarboxamide], the pEC50 in test [1] was 5.58; with SW480 colon cancer cells, less than 5.00; in test [2], 5.45; with IL-6 it was 7.03. Moreover, the inhibition at 10 µM in the test with SW480 colon cancer cells came out at 49.3%. Besides, the Emax in test [3] stood at 23%.
For the compound `CN(C)CCOc1cncc(-c2cnc3[nH]nc(-c4cc5c(-c6ccc(F)cc6)cncc5[nH]4)c3c2)c1` [Compound 531, 2-((5-(3-(4-(4-Fluorophenyl)-1H-pyrrolo[2,3-c]pyridin-2-yl)-1H-pyrazolo [3,4-b]pyridin-5-yl)pyridin-3-yl)oxy)-N,N-dimethylethan-1-amine], the results for the inhibition at 10 µM (in test [1]; in test [2]; in the test with IL-6) were 48.5%, 11.4% and 22.9%, respectively. The pEC50 in test [1] was less than 5.00; with SW480 colon cancer cells it was 5.44; in test [2], less than 5.00; with IL-6, less than 5.00. The Emax in test [3] stood at 28%.
Take `Fc1ccccc1-c1cncc2[nH]c(-c3n[nH]c4ncc(-c5cn[nH]c5)cc34)cc12` [Compound 539, 3-(4-(2-Fluorophenyl)-1H-pyrrolo[2,3-c]pyridin-2-yl)-5-(1H-pyrazol-4-yl)-1H-pyrazolo[3,4-b]pyridine]: the pEC50 was 6.38 in test [1], 6.19 with SW480 colon cancer cells, 7.00 in test [2] and 6.77 with IL-6. In test [3], the EC50 amounted to 100 nM. For the same compound, in test [3], the Emax was determined as 51%.
As to `Cc1ncc(-c2cnc3[nH]nc(-c4cc5c(-c6ccncc6)cncc5[nH]4)c3c2)n1C` [Compound 573, 5-(1,2-Dimethyl-1H-imidazol-5-yl)-3-(4-(pyridin-4-yl)-1H-pyrrolo[2,3-c]pyridin-2-yl)-1H-pyrazolo[3,4-b]pyridine], the inhibition at 10 µM was 7.1% in test [1], 19.8% in the test with SW480 colon cancer cells, 46.7% in test [2] and 0% in the test with IL-6. In addition, the pEC50 (in test [1]; in the test on SW480 colon cancer cells; in test [2]; in the test on IL-6) was less than 5.00 each time. The EC50 in test [3] was 10 nM. Further, the Emax in test [3] is 194%.

(Values after patent publication US20180221352A1, “3-(1H-PYRROLO[2,3-C]PYRIDIN-2-YL)-1H-PYRAZOLO[3,4-B]PYRIDINES AND THERAPEUTIC USES THEREOF” (Samumed, LLC, priority 2015, published 2018).)
